Like-named read-outs stand apart in the source and are kept apart here. *1 amine or outer side, *2 acyl side, *3 side chain or, on linkers, in order; H or OH if unused. Where a SMILES comes first, the peptide text is derived from it. Bridges are numbered along the chain shown (N, C = ends). [ ]: non-standard residue; d: D form. The star is where a group is joined. Ala(piperidin-4-yl) = O=C([C@H](CC1CCN([*:3])CC1)N[*:1])[*:2]; Malonyl(2,2-Me2,histaminyl) = CC(C)(C(=O)NCCc1cnc[nH]1)C(=O)*; dBip = N[C@H](Cc1ccc(-c2ccccc2)cc1)C(=O)O; Oic = O=C(O)[C@@H]1C[C@@H]2CCCC[C@@H]2N1; Phe(4-Br) = N[C@@H](Cc1ccc(Br)cc1)C(=O)O; hArg = N=C(N)NCCCC[C@H](N)C(=O)O; Pip = O=C(O)[C@@H]1CCCCN1; Nle = CCCC[C@H](N)C(=O)O
Assays:
human Apelin receptor [1] = molecular target: T1, human Apelin receptor (Homo sapiens, UniProt P35414); assay: cAMP accumulation assay (HTRF), functional agonism, CHO cells stably expressing the human Apelin receptor; assay type: cell-based; details: for Emax: CHO
T1 sequence (P35414 1-380): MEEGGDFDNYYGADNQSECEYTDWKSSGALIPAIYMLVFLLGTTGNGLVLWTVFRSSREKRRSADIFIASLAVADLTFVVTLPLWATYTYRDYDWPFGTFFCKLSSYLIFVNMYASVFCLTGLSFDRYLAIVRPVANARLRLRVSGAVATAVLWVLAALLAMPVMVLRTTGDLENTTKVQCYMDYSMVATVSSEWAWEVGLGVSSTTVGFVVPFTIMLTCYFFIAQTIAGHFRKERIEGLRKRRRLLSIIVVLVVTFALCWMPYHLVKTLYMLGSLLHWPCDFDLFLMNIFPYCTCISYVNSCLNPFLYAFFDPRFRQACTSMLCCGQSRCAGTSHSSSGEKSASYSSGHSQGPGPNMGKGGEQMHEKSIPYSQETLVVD
Text: cAMP functional assay. cAMP production was quantified using the Homogeneous Time-Resolved Fluorescence (HTRF) cAMP dynamic-2 assay (Cisbio, France).

human Apelin receptor [2] = molecular target: T1, human Apelin receptor; assay: β-arrestin accumulation assay, CHO-K1 cells overexpressing human Apelin receptor and β-arrestin (DiscoverRx); assay type: cell-based; parameters: host or cells: CHO-K1 cells
Method: β-arrestin assay. […] After 16 h incubation at 37° C. media was removed and cells were incubated at 37° C. for 90 min in serum free media containing increasing concentrations of test agonist. The assay reaction was stopped by adding detection reagent (DiscoveRx) and incubation for 60 min in the dark. Levels of receptor activation were then measured on a PheraStar fluorescence plate reader (BMG LabTech) and EC50 values were determined using Graphpad Prism.

| Structure (SMILES) | EC50 (human Apelin receptor [1]) | Emax (human Apelin receptor [1]) | EC50 (human Apelin receptor [2]) | Emax (human Apelin receptor [1]; read-out: Emax) | EC50 (human Apelin receptor [1]; read-out: pEC50 (converted)) | EC50 (human Apelin receptor [2]; read-out: pEC50 (converted)) |
| --- | --- | --- | --- | --- | --- | --- |
| CC(C)C[C@H](NC(=O)[C@@H](CCCNC(=N)N)NC(=O)[C@@H]1CCCCN1C(=O)[C@H](CCCCNC(=N)N)NC(=O)[C@H](CCC(N)=O)NC(=O)[C@@H](CCCNC(=N)N)NC(=O)C(C)(C)C(=O)NCCc1c[nH]cn1)C(=O)N[C@H]1CCC(=O)NCCCC[C@@H](C(=O)N2[C@H](C(=O)N[C@@H](Cc3ccc(Br)cc3)C(=O)N3CCC[C@H]3C(=O)N[C@H](Cc3ccc(-c4ccccc4)cc3)C(=O)O)C[C@@H]3CCCC[C@@H]32)NC(=O)[C@H](CC2CCNCC2)NC(=O)[C@H](Cc2c[nH]cn2)NC1=O [Example 1] ({Malonyl(2,2-Me2,histaminyl)}-[dR]Q[hArg][Pip][dR]LEH[Ala(piperidin-4-yl)]K[Oic][Phe(4-Br)]P[dBip]-OH; lactam 7-10) | 3.16 nM | 70.5% | > 10000 nM |  |  |  |
| CCCC[C@H](NC(=O)[C@@H]1C[C@@H]2CCCC[C@@H]2N1C(=O)[C@@H]1CCCCNC(=O)CC[C@H](NC(=O)[C@H](CC(C)C)NC(=O)[C@@H](CCCNC(=N)N)NC(=O)[C@@H]2CCCCN2C(=O)[C@H](CCCCNC(=N)N)NC(=O)[C@H](CCC(N)=O)NC(=O)[C@@H](CCCNC(=N)N)NC(=O)C(C)(C)C(=O)NCCc2c[nH]cn2)C(=O)N[C@@H](Cc2c[nH]cn2)C(=O)N[C@@H](CC2CCNCC2)C(=O)N1)C(=O)N1CCC[C@H]1C(=O)N[C@H](Cc1ccc(-c2ccccc2)cc1)C(=O)O [Example 2] ({Malonyl(2,2-Me2,histaminyl)}-[dR]Q[hArg][Pip][dR]LEH[Ala(piperidin-4-yl)]K[Oic][Nle]P[dBip]-OH; lactam 7-10) | 15.8 nM | 31.2% | > 10000 nM |  |  |  |
| CCCC[C@H](NC(=O)[C@@H]1C[C@@H]2CCCC[C@@H]2N1C(=O)[C@@H]1CCCCNC(=O)CC[C@H](NC(=O)[C@H](CC(C)C)NC(=O)[C@@H](CCCNC(=N)N)NC(=O)[C@@H]2CCCCN2C(=O)[C@H](CCCCNC(=N)N)NC(=O)[C@H](CCC(N)=O)NC(=O)[C@@H](CCCNC(=N)N)NC(=O)C(C)(C)C(=O)NCCc2c[nH]cn2)C(=O)N[C@@H](Cc2ccc(Br)cc2)C(=O)N[C@@H](CC2CCNCC2)C(=O)N1)C(=O)N1CCC[C@H]1C(=O)N[C@H](Cc1ccc(-c2ccccc2)cc1)C(=O)O [Example 4] ({Malonyl(2,2-Me2,histaminyl)}-[dR]Q[hArg][Pip][dR]LE[Phe(4-Br)][Ala(piperidin-4-yl)]K[Oic][Nle]P[dBip]-OH; lactam 7-10) |  |  |  | 28.4% | 100 nM | > 10000 nM |
| CC(C)C[C@H](NC(=O)[C@@H](CCCNC(=N)N)NC(=O)[C@@H]1CCCCN1C(=O)[C@H](CCCCNC(=N)N)NC(=O)[C@H](CCC(N)=O)NC(=O)C(C)(C)C(=O)NCCc1c[nH]cn1)C(=O)N[C@H]1CCC(=O)NCCCC[C@@H](C(=O)N2[C@H](C(=O)N[C@@H](Cc3ccc(Br)cc3)C(=O)N3CCC[C@H]3C(=O)N[C@H](Cc3ccc(-c4ccccc4)cc3)C(=O)O)C[C@@H]3CCCC[C@@H]32)NC(=O)[C@H](CC2CCNCC2)NC(=O)[C@H](Cc2c[nH]cn2)NC1=O [Example 5] ({Malonyl(2,2-Me2,histaminyl)}-Q[hArg][Pip][dR]LEH[Ala(piperidin-4-yl)]K[Oic][Phe(4-Br)]P[dBip]-OH; lactam 6-9) |  |  |  | 48.2% | 5.01 nM | > 10000 nM |
| CC(C)C[C@@H]1NC(=O)[C@@H](CCCNC(=N)N)NC(=O)[C@@H](NC(=O)[C@H](CCCCNC(=N)N)NC(=O)[C@H](CCC(N)=O)NC(=O)C(C)(C)C(=O)NCCc2c[nH]cn2)CC(=O)NCCCC[C@@H](C(=O)N[C@@H](CC2CCNCC2)C(=O)NCC(=O)N2[C@H](C(=O)N[C@@H](Cc3ccc(Br)cc3)C(=O)N3CCC[C@H]3C(=O)N[C@H](Cc3ccc(-c4ccccc4)cc3)C(=O)O)C[C@@H]3CCCC[C@@H]32)NC(=O)CNC1=O [Example 6] ({Malonyl(2,2-Me2,histaminyl)}-Q[hArg]D[dR]LGK[Ala(piperidin-4-yl)]G[Oic][Phe(4-Br)]P[dBip]-OH; lactam 3-7) | 12.6 nM | 30.5% | > 100000 nM |  |  |  |
